{"source": "patent US9708334B2", "about": "“Substituted 2,4,5,6-tetrahydropyrrolo[3,4-c]pyrazole and 4,5,6,7-tetrahydro-2H-pyrazolo[4,3-c]pyridine compounds as GlyT1 inhibitors” (DART NEUROSCIENCE (CAYMAN) LTD., priority 2014, dated 2017)", "molecular_target": "T1, GlyT1 (Homo sapiens, UniProt P48067)", "T1 construct": "expressed in transfected cells", "T1 sequence (P48067 1-706)": "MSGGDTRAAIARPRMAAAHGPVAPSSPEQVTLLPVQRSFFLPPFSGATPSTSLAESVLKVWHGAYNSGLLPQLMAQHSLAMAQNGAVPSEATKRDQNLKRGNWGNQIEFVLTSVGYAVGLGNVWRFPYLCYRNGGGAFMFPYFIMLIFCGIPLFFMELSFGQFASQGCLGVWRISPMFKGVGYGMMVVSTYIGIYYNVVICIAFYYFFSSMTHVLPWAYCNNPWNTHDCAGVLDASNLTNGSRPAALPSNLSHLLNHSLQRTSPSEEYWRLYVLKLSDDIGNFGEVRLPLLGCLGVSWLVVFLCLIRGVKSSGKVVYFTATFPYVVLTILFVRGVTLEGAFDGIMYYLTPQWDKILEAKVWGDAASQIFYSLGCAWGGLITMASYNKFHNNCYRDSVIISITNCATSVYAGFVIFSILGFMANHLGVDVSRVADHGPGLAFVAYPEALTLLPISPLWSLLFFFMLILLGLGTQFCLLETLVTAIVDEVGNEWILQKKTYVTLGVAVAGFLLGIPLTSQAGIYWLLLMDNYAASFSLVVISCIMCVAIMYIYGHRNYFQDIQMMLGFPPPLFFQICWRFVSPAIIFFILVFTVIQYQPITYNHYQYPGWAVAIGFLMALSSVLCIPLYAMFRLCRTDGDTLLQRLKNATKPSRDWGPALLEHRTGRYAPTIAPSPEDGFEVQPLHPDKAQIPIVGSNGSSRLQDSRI", "experiment": "Glycine Transporter 1 (GlyT1) uptake assay, scintillation proximity assay of [14C]-glycine uptake", "assay_type": "cell-based", "conditions": "SPA, four parameter logistic fit, read-out: GlyT1 (pIC50) (converted)", "method_in_brief": "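[14C]-glycine uptake read by scintillation proximity on a plate counter. IC50 from four-parameter logistic fit of dose-response data.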", "data": [{"smiles": "COc1c(C#N)ccc(O[C@@H](C)C(F)(F)F)c1C(=O)N1Cc2cn(-c3cncc(F)c3)nc2C1", "note": "[Example 250, 3-[2-(5-Flouropyridin-3-yl)-2H 4H 5H 6H-pyrrolo[3,4-c]pyrazole-5-carbonyl]-2-methoxy-4-{[(2S)-1 1 1-trifluoropropan-2-yl]oxy}benzonitrile]", "values": [{"measurement": "IC50", "value": "< 100", "unit": "nM"}]}, {"smiles": "CC(Oc1ccc(C#N)cc1C(=O)N1Cc2cn(-c3ccc(F)cn3)nc2C1)C(F)(F)F", "note": "(centres unmarked) [Example 251]", "values": [{"measurement": "IC50", "value": "100 to 1000", "unit": "nM"}]}, {"smiles": "C[C@H](Oc1ccc(C#N)c(Cl)c1C(=O)N1Cc2cn(-c3cncc(F)c3)nc2C1)C(F)(F)F", "note": "[Example 252, 2-Chloro-3-[2-(5-fluoropyridin-3-yl)-2H 4H 5H 6H-pyrrolo[3,4-c]pyrazole-5-carbonyl]-4-{[(2S)-1 1 1-trifluoropropan-2-yl]oxy}benzonitrile]", "values": [{"measurement": "IC50", "value": "< 100", "unit": "nM"}]}, {"smiles": "COc1c(C#N)ccc(O[C@@H](C)C(F)(F)F)c1C(=O)N1Cc2cn(-c3cccc(C)n3)nc2C1", "note": "[Example 253]", "values": [{"measurement": "IC50", "value": "< 100", "unit": "nM"}]}, {"smiles": "COc1c(C#N)ccc(O[C@@H](C)C(F)(F)F)c1C(=O)N1Cc2cn(-c3ccc(C(F)(F)F)nc3)nc2C1", "note": "[Example 254]", "values": [{"measurement": "IC50", "value": "< 100", "unit": "nM"}]}, {"smiles": "C[C@H](Oc1ccc(C#N)c(Cl)c1C(=O)N1CCc2[nH]nc(-c3ccc(C(F)(F)F)cc3)c2C1)C(F)(F)F", "note": "[Example 255, 2-Chloro-3-{3-[4-(trifluoromethyl)phenyl]-1H 4H 5H 6H 7H-pyrazolo[4,3-c]pyridine-5-carbonyl}-4-{[(2S)-1 1 1-trifluoropropan-2-yl]oxy}benzonitrile]", "values": [{"measurement": "IC50", "value": "1000 to 10000", "unit": "nM"}]}, {"smiles": "C[C@H](Oc1ccc(C#N)c(Cl)c1C(=O)N1Cc2cn(-c3ccc(C(F)(F)F)nc3)nc2C1)C(F)(F)F", "note": "[Example 256, 2-Chloro-3-{2-[6-(trifluoromethyl)pyridin-3-yl]-2H 4H 5H 6H-pyrrolo[3,4-c]pyrazole-5-carbonyl}-4-{[(2S)-1 1 1-trifluoropropan-2-yl]oxy}benzonitrile]", "values": [{"measurement": "IC50", "value": "100 to 1000", "unit": "nM"}]}, {"smiles": "COc1c(C#N)ccc(O[C@@H](C)C(F)(F)F)c1C(=O)N1CCc2[nH]nc(-c3ccc(C(F)(F)F)cc3)c2C1", "note": "[Example 257, 2-Methoxy-3-{3[4-(trifluoromethyl)phenyl]-1H 4H 5H 6H 7H-pyrazolo[4,3-c]pyridine-5-carbonyl}-4-{[(2S)-1 1 1-trifluoropropan-2-yl]oxy}benzonitrile]", "values": [{"measurement": "IC50", "value": "100 to 1000", "unit": "nM"}]}, {"smiles": "COc1c(C#N)ccc(C2(F)CCC2)c1C(=O)N1Cc2cn(-c3ccc(F)cn3)nc2C1", "note": "[Example 258, 4-(1-Fluorocyclobutyl)-3-[2-(5-fluoropyridin-2-yl)-2H 4H 5H 6H-pyrrolo[3,4-c]pyrazole-5-carbonyl]-2-methoxybenzonitrile]", "values": [{"measurement": "IC50", "value": "100 to 1000", "unit": "nM"}]}, {"smiles": "COc1c(C#N)ccc(C2(F)CCOCC2)c1C(=O)N1Cc2cn(-c3ccc(F)cn3)nc2C1", "note": "[Example 259, 4-(4-Fluorooxan-4-yl)-3-[2-(5-fluoropyridin-2-yl)-2H 4H 5H 6H-pyrrolo[3,4-c]pyrazole-5-carbonyl]-2-methoxybenzonitrile]", "values": [{"measurement": "IC50", "value": "100 to 1000", "unit": "nM"}]}, {"smiles": "COc1c(C#N)ccc(OCC(F)(F)F)c1C(=O)N1Cc2cn(-c3ccc(F)cn3)nc2C1", "note": "[Example 260, 3-[2-(5-Fluoropyridin-2-yl)-2H 4H 5H 6H-pyrrolo[3,4-c]pyrazole-5-carbonyl]-2-methoxy-4-(2 2 2-trifluoroethoxy)benzonitrile]", "values": [{"measurement": "IC50", "value": "100 to 1000", "unit": "nM"}]}, {"smiles": "COc1c(C#N)ccc(O[C@@H](C)C(F)(F)F)c1C(=O)N1Cc2cn(-c3ncccc3F)nc2C1", "note": "[Example 261]", "values": [{"measurement": "IC50", "value": "< 100", "unit": "nM"}]}, {"smiles": "C[C@H](Oc1ccc(C#N)c(Cl)c1C(=O)N1Cc2cn(-c3ncccc3F)nc2C1)C(F)(F)F", "note": "[Example 262, 2-Chloro-3-[2-(3-fluoropyridin-2-yl)-2H 4H 5H 6H-pyrrolo[3,4-c]pyrazole-5-carbonyl]-4-{[(2S)-1 1 1-trifluoropropan-2-yl]oxy}benzonitrile]", "values": [{"measurement": "IC50", "value": "< 100", "unit": "nM"}]}, {"smiles": "COc1c(C#N)ccc(O[C@@H](C)C(F)(F)F)c1C(=O)N1Cc2cn(-c3ccccn3)nc2C1", "note": "[Example 263, 2-Methoxy-3-[2-(pyridin-2-yl)-2H 4H 5H 6H-pyrrolo[3,4-c]pyrazole-5-carbonyl]-4-{[(2S)-1 1 1-trifluoropropan-2-yl]oxy}benzonitrile]", "values": [{"measurement": "IC50", "value": "< 100", "unit": "nM"}]}, {"smiles": "C[C@H](Oc1ccc(C#N)c(Cl)c1C(=O)N1Cc2cn(-c3ccccn3)nc2C1)C(F)(F)F", "note": "[Example 264]", "values": [{"measurement": "IC50", "value": "< 100", "unit": "nM"}]}, {"smiles": "Cc1ccc(-n2cc3c(n2)CN(C(=O)c2c(O[C@@H](C)C(F)(F)F)ccc(C#N)c2Cl)C3)cn1", "note": "[Example 265, 2-Chloro-3-[2-(6-methylpyridin-3-yl)-2H 4H 5H 6H-pyrrolo[3,4-c]pyrazole-5-carbonyl]-4-{[(2S)-1 1 1-trifluoropropan-2-yl]oxy}benzonitrile]", "values": [{"measurement": "IC50", "value": "100 to 1000", "unit": "nM"}]}, {"smiles": "COc1c(C#N)ccc(O[C@@H](C)C(F)(F)F)c1C(=O)N1Cc2cn(-c3ccc(C)nc3)nc2C1", "note": "[Example 266, 2-Methoxy-3-[2-(6-methylpyridin-3-yl)-2H 4H 5H 6H-pyrrolo[3,4-c]pyrazole-5-carbonyl]-4-{[(2S)-1 1 1-trifluoropropan-2-yl]oxy}benzonitrile]", "values": [{"measurement": "IC50", "value": "< 100", "unit": "nM"}]}, {"smiles": "C[C@H](Oc1ccc(C#N)c(Cl)c1C(=O)N1Cc2cn(-c3cccc(F)c3)nc2C1)C(F)(F)F", "note": "[Example 267, 2-Chloro-3-[2-(3-fluorophenyl)-2H 4H 5H 6H-pyrrolo[3,4-c]pyrazole-5-carbonyl]-4-{[(2S)-1 1 1-trifluoropropan-2-yl]oxy}benzonitrile]", "values": [{"measurement": "IC50", "value": "< 100", "unit": "nM"}]}, {"smiles": "COc1c(C#N)ccc(O[C@@H](C)C(F)(F)F)c1C(=O)N1Cc2cn(-c3cccc(F)c3)nc2C1", "note": "[Example 268, 3-[2-(3-Fluorophenyl)-2H 4H 5H 6H-pyrrolo[3,4-c]pyrazole-5-carbonyl]-2-methoxy-4-{[(2S)-1 1 1-trifluoropropan-2-yl]oxy}benzonitrile]", "values": [{"measurement": "IC50", "value": "< 100", "unit": "nM"}]}, {"smiles": "C[C@H](Oc1ccc(C#N)c(Cl)c1C(=O)N1Cc2cn(-c3ccccc3F)nc2C1)C(F)(F)F", "note": "[Example 269, 2-Chloro-3-[2-(2-fluorophenyl)-2H 4H 5H 6H-pyrrolo[3,4-c]pyrazole-5-carbonyl]-4-{[(2S)-1 1 1-trifluoropropan-2-yl]oxy}benzonitrile]", "values": [{"measurement": "IC50", "value": "< 100", "unit": "nM"}]}, {"smiles": "COc1c(C#N)ccc(O[C@@H](C)C(F)(F)F)c1C(=O)N1Cc2cn(-c3ccccc3F)nc2C1", "note": "[Example 270, 3-[2-(2-Fluorophenyl)-2H 4H 5H 6H-pyrrolo[3,4-c]pyrazole-5-carbonyl]-2-methoxy-4-{[(2S)-1 1 1-trifluoropropan-2-yl]oxy}benzonitrile]", "values": [{"measurement": "IC50", "value": "< 100", "unit": "nM"}]}, {"smiles": "Cc1cccnc1-n1cc2c(n1)CN(C(=O)c1c(O[C@@H](C)C(F)(F)F)ccc(C#N)c1Cl)C2", "note": "[Example 271, 2-Chloro-3-[2-(3-methylpyridin-2-yl)-2H 4H 5H 6H-pyrrolo[3,4-c]pyrazole-5-carbonyl]-4-{[(2S)-1 1 1-trifluoropropan-2-yl]oxy}benzonitrile]", "values": [{"measurement": "IC50", "value": "100 to 1000", "unit": "nM"}]}, {"smiles": "COc1c(C#N)ccc(O[C@@H](C)C(F)(F)F)c1C(=O)N1Cc2cn(-c3ncccc3C)nc2C1", "note": "[Example 272, 2-Methoxy-3-[2-(3-methylpyridin-2-yl)-2H 4H 5H 6H-pyrrolo[3,4-c]pyrazole-5-carbonyl]-4-{[(2S)-1 1 1-trifluoropropan-2-yl]oxy}benzonitrile]", "values": [{"measurement": "IC50", "value": "< 100", "unit": "nM"}]}, {"smiles": "Cc1ccnc(-n2cc3c(n2)CN(C(=O)c2c(O[C@@H](C)C(F)(F)F)ccc(C#N)c2Cl)C3)c1", "note": "[Example 273, 2-Chloro-3-[2-(4-methylpyridin-2-yl)-2H 4H 5H 6H-pyrrolo[3,4-c]pyrazole-5-carbonyl]-4-{[(2S)-1 1 1-trifluoropropan-2-yl]oxy}benzonitrile]", "values": [{"measurement": "IC50", "value": "< 100", "unit": "nM"}]}, {"smiles": "COc1c(C#N)ccc(O[C@@H](C)C(F)(F)F)c1C(=O)N1Cc2cn(-c3cc(C)ccn3)nc2C1", "note": "[Example 274, 2-Methoxy-3-[2-(4-methylpyridin-2-yl)-2H 4H 5H 6H-pyrrolo[3,4-c]pyrazole-5-carbonyl]-4-{[(2S)-1 1 1-trifluoropropan-2-yl]oxy}benzonitrile]", "values": [{"measurement": "IC50", "value": "< 100", "unit": "nM"}]}, {"smiles": "COc1cccc(-n2cc3c(n2)CN(C(=O)c2c(O[C@@H](C)C(F)(F)F)ccc(C#N)c2OC)C3)n1", "note": "[Example 275, 2-Methoxy-3-[2-(6-methoxypyridin-2-yl)-2H 4H 5H 6H-pyrrolo[3,4-c]pyrazole-5-carbonyl]-4-{[(2S)-1 1 1-trifluoropropan-2-yl]oxy}benzonitrile]", "values": [{"measurement": "IC50", "value": "< 100", "unit": "nM"}]}, {"smiles": "COc1cccc(-n2cc3c(n2)CN(C(=O)c2c(O[C@@H](C)C(F)(F)F)ccc(C#N)c2Cl)C3)n1", "note": "[Example 276, 2-Chloro-3-[2-(6-methoxypyridin-2-yl)-2H 4H 5H 6H-pyrrolo[3,4-c]pyrazole-5-carbonyl]-4-{[(2S)-1 1 1-trifluoropropan-2-yl]oxy}benzonitrile]", "values": [{"measurement": "IC50", "value": "< 100", "unit": "nM"}]}, {"smiles": "COc1cc(-n2cc3c(n2)CN(C(=O)c2c(O[C@@H](C)C(F)(F)F)ccc(C#N)c2OC)C3)ccn1", "note": "[Example 277, 2-Methoxy-3-[2-(2-methoxypyridin-4-yl)-2H 4H 5H 6H-pyrrolo[3,4-c]pyrazole-5-carbonyl]-4-{[(2S)-1 1 1-trifluoropropan-2-yl]oxy}benzonitrile]", "values": [{"measurement": "IC50", "value": "< 100", "unit": "nM"}]}, {"smiles": "COc1c(C#N)ccc(O[C@@H](C)C(F)(F)F)c1C(=O)N1Cc2cn(-c3ccc(C)cn3)nc2C1", "note": "[Example 278, 2-Methoxy-3-[2-(5-methylpyridin-2-yl)-2H 4H 5H 6H-pyrrolo[3,4-c]pyrazole-5-carbonyl]-4-{[(2S)-1 1 1-trifluoropropan-2-yl]oxy}benzonitrile]", "values": [{"measurement": "IC50", "value": "< 100", "unit": "nM"}]}]}
